Experimental data reported in article PMC11110727, “Exploiting thiol-functionalized benzosiloxaboroles for achieving diverse substitution patterns – synthesis, characterization and biological evaluation of promising antibacterial agents” (RSC Medicinal Chemistry, 2024).
In brackets after ≈: the same amount, converted by molar mass.

Assays:
[1] = system: Human normal lung fibroblasts MRC-5; experiment: MTT-based viability (cytotoxicity) assay; conditions: for IC50: Homo sapiens, MRC5, 48 h
How it was run: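 MRC-5 pd30 human lung fibroblasts in supplemented MEME at 37 °C, 5% CO2; viability by MTT, absorbance 570 nm, triplicate, as percent of control cells. Selectivity index taken as IC50/MIC against S. aureus MRSA strains.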

[2] = system: S. maltophilia ATCC 13637; experiment: Antibacterial activity: MIC/MBC, MIC with PAβN, disc-diffusion; type: cell-based, Stenotrophomonas maltophilia; conditions: S. maltophilia ATCC 13637; for diameter of inhibition zone: (-) = zone not observed, paper discs 9 mm; for MBC / MIC: Stenotrophomonas maltophilia, ATCC13637; for MIC: read-out: MIC
How it was run: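 Read-outs are disc-diffusion zones, broth-microdilution MICs and bactericidal concentrations (MBC), following EUCAST and CLSI guidance. The efflux contribution was probed by rerunning MICs with 20 μg mL^−1 PAβN in MgSO4-supplemented (1 mM) Mueller–Hinton II broth, a ≥4-fold decrease being significant.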

P. mirabilis ATCC 12453 = experiment: as above; type: cell-based, Proteus mirabilis; conditions: P. mirabilis ATCC 12453; for MIC: Proteus mirabilis, ATCC12453, read-out: MIC
Method: Direct antimicrobial activity was determined against the following standard strains: (1) Gram-positive cocci: methicillin-sensitive Staphylococcus aureus ATCC 6538P (MSSA), methicillin-resistant S. aureus subsp. aureus ATCC 43300 (MRSA), S. epidermidis ATCC 12228, Enterococcus faecium ATCC 6057, E. faecalis ATCC 29212, Bacillus subtilis ATCC 6633; (2) Gram-negative bacteria from Enterobacteriales order: Klebsiella pneumoniae ATCC 13883, Escherichia coli ATCC 25922, Enterobacter cloacae DSM 6234, Proteus mirabilis ATCC 12453, Serratia marcescens ATCC 13880; (3) Gram-negative non-fermentative rods: Acinetobacter baumannii ATCC 19606, Pseudomonas aeruginosa ATCC 27853, Stenotrophomonas maltophilia ATCC 12714, S. maltophilia ATCC 13637, Burkholderia cepacia ATCC 25416, Bordetella bronchiseptica ATCC 4617; (4) yeasts: Candida albicans ATCC 90028, C. krusei ATCC 6258, C. parapsilosis ATCC 22019, C. tropicalis (Castellani) Berkhout ATCC 750, C. tropicalis IBA 171, C. guilliermondii IBA 155, and Saccharomyces cerevisiae ATCC 9763. Moreover, 5 clinical strains of methicillin-resistant S. aureus were also included: NMI 664 K, NMI 1576 K, NMI 1712 K, NMI 1991 K, and NMI 2541 K. All strains were stored at −80 °C. Prior to testing, each bacterial strain was subcultured twice on tryptic soy agar TSA (bioMerieux) medium and yeast strains on Sabouraud dextrose agar (bioMerieux) for 24–48 h at 30 °C to ensure viability. The antimicrobial activity was evaluated as previously described[26] by the disc-diffusion method and the MIC determination assays according to the EUCAST (ref. [71] and [72]) and CLSI (ref. [53] and [73]) recommendations. Assessment of bactericidal (MBC) and fungicidal (MFC) activities was performed according to the CLSI recommendations.[54,74] […] The new benzosiloxaboroles were dissolved in DMSO (Sigma).
Considering that the MDR efflux pumps often contribute to Gram-negative rod resistance, the MIC values of studied agents, with or without the pump inhibitor, PAβN (20 μg mL^−1) (Sigma), were determined.[75] The MIC was determined using Mueller–Hinton II broth medium (MHB) (Becton Dickinson) by the broth microdilution method, according to the CLSI guideliness.[53] To minimize the influence of PAβN on the destabilization of bacterial cell covers, the tests were conducted in the presence of 1 mM MgSO4 (Sigma).[76] At least a 4-fold reduction in the MIC value after the addition of PAβN was considered significant.[56,77]

[3] = system: S. aureus NMI 2541 K MRSA; experiment: Antibacterial activity against clinical MRSA: MIC/MBC; type: cell-based; conditions: Staphylococcus aureus, NMI 2541 K MRSA; for MBC: read-out: MBC (first MBC where Eagle effect); for MIC: read-out: MIC
Method: Direct antimicrobial activity was determined against the following standard strains: (1) Gram-positive cocci: methicillin-sensitive Staphylococcus aureus ATCC 6538P (MSSA), methicillin-resistant S. aureus subsp. aureus ATCC 43300 (MRSA), S. epidermidis ATCC 12228, Enterococcus faecium ATCC 6057, E. faecalis ATCC 29212, Bacillus subtilis ATCC 6633; (2) Gram-negative bacteria from Enterobacteriales order: Klebsiella pneumoniae ATCC 13883, Escherichia coli ATCC 25922, Enterobacter cloacae DSM 6234, Proteus mirabilis ATCC 12453, Serratia marcescens ATCC 13880; (3) Gram-negative non-fermentative rods: Acinetobacter baumannii ATCC 19606, Pseudomonas aeruginosa ATCC 27853, Stenotrophomonas maltophilia ATCC 12714, S. maltophilia ATCC 13637, Burkholderia cepacia ATCC 25416, Bordetella bronchiseptica ATCC 4617; (4) yeasts: Candida albicans ATCC 90028, C. krusei ATCC 6258, C. parapsilosis ATCC 22019, C. tropicalis (Castellani) Berkhout ATCC 750, C. tropicalis IBA 171, C. guilliermondii IBA 155, and Saccharomyces cerevisiae ATCC 9763. Moreover, 5 clinical strains of methicillin-resistant S. aureus were also included: NMI 664 K, NMI 1576 K, NMI 1712 K, NMI 1991 K, and NMI 2541 K. All strains were stored at −80 °C. Prior to testing, each bacterial strain was subcultured twice on tryptic soy agar TSA (bioMerieux) medium and yeast strains on Sabouraud dextrose agar (bioMerieux) for 24–48 h at 30 °C to ensure viability. The antimicrobial activity was evaluated as previously described[26] by the disc-diffusion method and the MIC determination assays according to the EUCAST (ref. [71] and [72]) and CLSI (ref. [53] and [73]) recommendations. Assessment of bactericidal (MBC) and fungicidal (MFC) activities was performed according to the CLSI recommendations.[54,74] The following reference agents were used: fluconazole (in the case of fungi), linezolid (for Gram-positive bacteria), and nitrofurantoin (for Gram-negative rods). The new benzosiloxaboroles were dissolved in DMSO (Sigma).

SMILES | viability of MRC-5 ([1]; 6.25 µg·mL−1, 48 h) | viability of MRC-5 ([1]; 12.5 µg·mL−1, 48 h) | viability of MRC-5 ([1]; 25 µg·mL−1, 48 h) | viability of MRC-5 ([1]; 50 µg·mL−1, 48 h) | viability of MRC-5 ([1]; 100 µg·mL−1, 48 h) | viability of MRC-5 ([1]; 200 µg·mL−1, 48 h) | viability of MRC-5 ([1]; 400 µg·mL−1, 48 h) | IC50 [1] [mg/L] | diameter of inhibition zone [2] [mm] | MBC [2] [mg/L] | MIC [2] [mg/L] | diameter of inhibition zone (P. mirabilis ATCC 12453; (-) = zone not observed, paper discs 9 mm) [mm] | -fold reduction of MIC in the presence of PAβN (P. mirabilis ATCC 12453; PAβN 20 μg mL^−1, MHB + 1 mM MgSO4) | MIC (P. mirabilis ATCC 12453) [mg/L] | MBC [3] [mg/L] | MIC [3] [mg/L]
C[Si]1(C)OB(O)c2cc(F)c(SC3CC(=O)NC3=O)c(F)c21 (stereo not shown) [Compound 12, 3-((5,7-Difluoro-3-hydroxy-1,1-dimethyl-1,3-dihydrobenzo[c][1,2,5]oxasilaborol-6-yl)thio)pyrrolidine-2,5-dione] | 103.0±1.5 % of control ± SD | 104.4±1.9 % of control ± SD | 94.9±2.3 % of control ± SD | 86.1±6.9 % of control ± SD | 76.4±3.5 % of control ± SD | 46.9±2.7 % of control ± SD | 0.4±0.2 % of control ± SD | 167 (≈ 488 µM) | 13 | 100 (≈ 291 µM) | 50 (≈ 146 µM) | 14 | 4 -fold | > 400 | 200 (≈ 583 µM) | 12.5 (≈ 36.4 µM)
C[Si]1(C)OB(O)c2ccc(SC(=O)c3ccc(C(F)(F)F)cc3)c(F)c21 [Compound 25, S-(7-Fluoro-3-hydroxy-1,1-dimethyl-1,3-dihydrobenzo[c][1,2,5]oxasilaborol-6-yl) 4-(trifluoromethyl)benzothioate] | – | – | – | – | – | – | – | 112 (≈ 279 µM) | – | – | > 50 | – | – | > 50 | 25 (≈ 62.5 µM) | 12.5 (≈ 31.2 µM)
C[Si]1(C)OB(O)c2cc(F)c(SC3CC(=O)N(c4ccc(Br)c(C(F)(F)F)c4)C3=O)c(F)c21 (stereo not shown) [Compound 16, 1-(4-Bromo-3-(trifluoromethyl)phenyl)-3-((5,7-difluoro-3-hydroxy-1,1-dimethyl-1,3-dihydrobenzo[c][1,2,5]oxasilaborol-6-yl)thio)pyrrolidine-2,5-dione] | 97.0±0.2 % of control ± SD | 84.8±2.7 % of control ± SD | 78.5±1.6 % of control ± SD | 62.7±2.5 % of control ± SD | 46.0±1.4 % of control ± SD | 0.4±0.2 % of control ± SD | 0.1±0.0 % of control ± SD | 76.2 (≈ 135 µM) | – | – | > 200 | – | – | > 200 | – | –
C[Si]1(C)OB(O)c2cc(F)c(S(=O)(=O)N3CCOCC3)c(F)c21 [Compound 29, 5,7-Difluoro-1,1-dimethyl-6-(morpholinosulfonyl)benzo[c][1,2,5]oxasilaborol-3(1H)-ol] | 90.1±3.4 % of control ± SD | 90.6±4.5 % of control ± SD | 86.8±4.3 % of control ± SD | 80.8±3.4 % of control ± SD | 74.1±0.5 % of control ± SD | 69.6±2.4 % of control ± SD | 60.4±5.2 % of control ± SD | > 400 | – | – | > 400 | – | – | > 400 | – | –
C[Si]1(C)OB(O)c2cc(F)c(SC3CC(=O)N(c4ccc(F)cc4)C3=O)c(F)c21 (stereo not shown) [Compound 14, 3-((5,7-Difluoro-3-hydroxy-1,1-dimethyl-1,3-dihydrobenzo[c][1,2,5]oxasilaborol-6-yl)thio)-1-(4-fluorophenyl)pyrrolidine-2,5-dione] | 90.4±7.6 % of control ± SD | 88.8±5.4 % of control ± SD | 87.5±3.5 % of control ± SD | 80.3±7.5 % of control ± SD | 52.0±2.8 % of control ± SD | 27.3±3.2 % of control ± SD | 0.1±0.1 % of control ± SD | 133 (≈ 305 µM) | 11 | 100 (≈ 229 µM) | 25 (≈ 57.2 µM) | – | – | > 200 | – | –
C[Si]1(C)OB(O)c2cc(F)c(S(=O)(=O)Nc3ccc(F)cc3)c(F)c21 [Compound 28, 5,7-Difluoro-N-(4-fluorophenyl)-3-hydroxy-1,1-dimethyl-1,3-dihydrobenzo[c][1,2,5]oxasilaborole-6-sulfonamide] | 93.3±1.9 % of control ± SD | 82.6±1.2 % of control ± SD | 75.1±5.4 % of control ± SD | 65.5±1.8 % of control ± SD | 47.7±3.7 % of control ± SD | 32.5±0.0 % of control ± SD | 15.6±0.1 % of control ± SD | 74.9 (≈ 193 µM) | – | – | > 400 | – | – | > 400 | – | –
C[Si]1(C)OB(O)c2ccc(SC3CC(=O)N(c4ccc(Br)c(C(F)(F)F)c4)C3=O)c(F)c21 (stereo not shown) [Compound 17, 1-(4-Bromo-3-(trifluoromethyl)phenyl)-3-((7-fluoro-3-hydroxy-1,1-dimethyl-1,3-dihydrobenzo[c][1,2,5]oxasilaborol-6-yl)thio)pyrrolidine-2,5-dione] | 99.9±4.6 % of control ± SD | 96.1±2.3 % of control ± SD | 87.6±0.2 % of control ± SD | 89.2±8.5 % of control ± SD | 71.2±1.3 % of control ± SD | 29.5±0.3 % of control ± SD | 0.0±0.0 % of control ± SD | 140 (≈ 254 µM) | – | – | > 200 | – | – | > 200 | – | –
